The record followed here is patent US20070178537A1, “Assays for detection of bioactive compounds that interact with heat shock protein 90” (Sloan-Kettering Institute for Cancer Research, priority 2003, published 2007).

Where “and” joins values, the source holds several entries; their conditions need not be identical. Equal values may be shown once. Read-outs that look alike come from different tables or passages of the source.

Experiment [1] addresses Hsp90 beta (Homo sapiens, UniProt P08238). The experiment can be described thus: Fluorescence polarization competitive displacement of GM-BODIPY, Hsp90 beta. The experiment is classed as binding. To be noted: 30 nM Hsp90 beta, 5 nM GM BODIPY, 7 h. The source says: Specific ligand binding was plotted against the log10 inhibitor concentration and EC50 values calculated using a non linear least square curve fitting program in Prism 4.0.

Experiment [2] relates to Her2 in SKBr3 cells. Nature of the experiment: Her2-blot (whole-cell immunoassay of Her2 degradation). The experiment is classed as cell-based, human. The protocol: The human cancer cell lines SKBr3 and A431 were obtained from the American Type Culture Collection (Manassas, Va.) and maintained in 1:1 mixture of DME:F12 supplemented with 2 mM glutamine, 50 units/mL penicillin, 50 units/mL streptomycin and 5% heat inactivated fetal bovine serum (FBS) (Gemini Bioproducts) and incubated at 37° C. in 5% CO2. Stock culture was grown in T-175 flasks containing 30 mL of DME (HG, F-12, non-essential amino acids, and penicillin and streptomycin), with glutamine, and 10% FBS. Cells were dissociated with 0.05% trypsin and 0.02% EDTA in phosphate buffer saline (PBS) without calcium and magnesium. Experimental cultures of SKBr3 were plated in black, clear-bottom microtiter plates (Corning # 3603) (3,000 cells per well) in growth medium ([…]), and allowed to attach for at least 48 h at 37° C. and 5% CO2. Some wells were left without cells to serve as the blank. Growth medium (100 μL) with drug or vehicle (DMSO) was carefully added to the wells and the microtiter plates were placed at 37° C. and 5% CO2. […] Following incubation (6 h or 24 h), wells were washed twice with ice-cold tris buffer saline (TBS) containing 0.1% Tween20 (TBST) (200 μL). A house vacuum source attached to an 8-channel aspirator was used to remove the liquid from the microplates. Further, methanol (100 μL at −20° C.) was added to each well and the plate was left at 4° C. for 10 min. Methanol was removed by washing with TBST (2×200 μL). The plate was further incubated at RT for 1 h with SuperBlock® (Pierce # 37535) (200 μL) and overnight at 4° C. with the anti-Her-2 antibody (Santa Cruz Biotechnology # SC-284) ([…], 1:200 in SuperBlock®). Each well was washed with TBST (2×200 μL) and incubated at RT for 2 h with an anti-rabbit HRP-linked antibody (Sigma # A0545) (100 μL, 1:1000 in SuperBlock®). […] The plate was read 5 min later in an Analyst AD plate reader (Molecular Devices). […] Readings from wells containing only control IgG and the corresponding HRP-linked secondary antibody were set as background and deducted from all measured values. […]

Experiment [3] concerns tumor hsp90 versus normal tissue Hsp90. The experiment can be described thus: Fluorescence polarization assay with tumor cell and normal tissue lysates. It counts as binding. To be noted: FIG. 11 and FIG. 22C. The protocol:
For use in the assay of the invention, cell lysates are made using the following protocol • collect cells • adherent cells: trypsinize (or scrape), harvest cells in 15 ml conical tubes and centrifuge at 1,600 RPM for 5 minutes at 2 to 8 C • (use confluent T-175 flask to obtain 0.5 ml of lysate) • floating cells: pellet cells by centrifugation 1600 rpm for 5 minutes at 2 to 8 C • wash 2× with 5 ml of PBS buffer • resuspend the pellet in 1 ml of PBS buffer and transfer cells to an eppendorf tube • centrifuge, aspirate supernatant, and freeze the pellet O/N at −70° C. • resuspend in lysis buffer B (Felts buffer) (1×10^6 cells per 100 l of buffer B) • incubate on the rotor for 2 hours at 2 to 8° C. • centrifuge the samples at 13,200 RPM for 30 min at 2 to 8° C. • transfer the supernatant to a fresh tube • quantitate protein concentration with the Pierce BCA assay • add 0.5 uL of 1M DTT/mL lysate • store samples at −70 C; before conducting an experiment thaw samples on ice and keep samples on ice throughout the course of experiment.
Cellular lysates were prepared in this manner from normal brain tissue, CML cell line K562 and breast cancer cell line SKBr3. For constructing a saturation curve, 5 nM GM BODIPY was added to the lysate, and the fluorescence polarization assay of the invention was performed. […]
The assay is stable and results in reproducible data (6-24 h readings presented). […]

Experiment [4] addresses T1, Hsp90 alpha (Homo sapiens, UniProt P07900).
T1 construct: purchased Stressgen SPP776
The experiment can be described thus: Fluorescence polarization competitive displacement of GM-BODIPY from Hsp90. The experiment is classed as binding. To be noted: ratio of EC50 values.
Text: The method comprises the steps of: • (a) combining the candidate molecule with Hsp90 in the presence of a fluorescently-labeled molecule known to bind to Hsp90; • (b) exciting the fluorescent label using polarized light to produce a fluorescent emission; • (c) observing the degree of polarization of the fluorescent emission; and • (d) comparing the degree of polarization determined in step (c) to a standard value determined for the fluorescently labeled molecule when it is bound to Hsp90. When the fluorescently-labeled molecule is bound to the Hsp90, the emission is substantially polarized. On the other hand, when the fluorescently-labeled molecule has been wholly or partially displaced by candidate molecule, the extent to which the emission is polarized decreases as a result of the rotational freedom of the unbound fluorescently labeled species.
Maximum concentration of used DMSO was 0.25% (v/v). The plate was left on a shaker at 4° C. for 5 h and the FP values in mP were recorded.
Ad-But was again used as a control.
A mixture of 30 nM Hsp90 alpha, 30 nM Hsp90 beta or 200 nM Grp94-His, respectively with 5 nM GM BODIPY was added and the plate incubated at 4EC for 7 h. Specific ligand binding was plotted against the log10 inhibitor concentration and EC50 values calculated using a non linear least square curve fitting program in Prism 4.0.

The mark [5] stands for this setting: Homo sapiens, SK-BR-3, Her2-blot, read-out: IC50 for Her2 degradation.

Chain of Hsp90 beta (P08238 whole entry): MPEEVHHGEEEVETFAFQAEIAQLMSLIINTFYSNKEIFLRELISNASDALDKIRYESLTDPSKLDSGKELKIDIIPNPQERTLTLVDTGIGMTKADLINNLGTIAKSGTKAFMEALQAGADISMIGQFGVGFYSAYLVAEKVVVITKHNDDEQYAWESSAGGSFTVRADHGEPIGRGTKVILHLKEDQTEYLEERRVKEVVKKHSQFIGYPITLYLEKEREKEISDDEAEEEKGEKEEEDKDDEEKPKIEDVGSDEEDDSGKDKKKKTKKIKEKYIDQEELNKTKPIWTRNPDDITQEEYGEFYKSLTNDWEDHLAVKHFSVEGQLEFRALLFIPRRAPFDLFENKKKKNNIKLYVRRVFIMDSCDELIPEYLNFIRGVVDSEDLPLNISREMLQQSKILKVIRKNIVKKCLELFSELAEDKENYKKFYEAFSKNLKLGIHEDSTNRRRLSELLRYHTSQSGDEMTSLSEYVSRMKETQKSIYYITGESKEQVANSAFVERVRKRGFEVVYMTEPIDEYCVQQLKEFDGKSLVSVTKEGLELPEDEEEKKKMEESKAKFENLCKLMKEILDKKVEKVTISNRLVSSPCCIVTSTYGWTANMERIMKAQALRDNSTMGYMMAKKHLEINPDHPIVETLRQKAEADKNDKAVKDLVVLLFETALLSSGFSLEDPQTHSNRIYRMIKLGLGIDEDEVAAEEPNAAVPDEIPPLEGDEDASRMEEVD

In the case of `CCNC(=O)[C@H]1O[C@@H](n2cnc3c(N)ncnc32)[C@H](O)[C@@H]1O` [NECA], in experiment [1], the “Inhibition of cytosolic Hsp90 b (FIG. 13A)” value is “does not inhibit”.

As for `COC1=C2C[C@@H](C)C[C@H](OC)[C@H](O)[C@@H](C)/C=C(\C)[C@H](OC(N)=O)[C@@H](OC)/C=C\C=C(/C)C(=O)NC(=CC1=O)C2=O` [GM, geldanamycin], in experiment [2] (setting [5]), the IC50 is 0.017 µM. For `C[C@@H]1C[C@H]2O[C@@H]2/C=C\C=C\C(=O)Cc2c(Cl)c(O)cc(O)c2C(=O)O1` [RD, radicicol], the IC50 in experiment [2] (setting [5]) worked out at 0.028 µM.

Consider `C#CCCCn1c(Cc2cc(OC)c(OC)c(OC)c2Cl)nc2c(N)nc(F)nc21` [PU24FCl], for which, in experiment [2] (several plates at different time periods, read-out: IC50s in separate readings of the Her2-blot), the IC50 was 4 µM and 4.18 µM and 4.54 µM. The “Binding affinity for tumor versus normal tissue Hsp90” value in experiment [3] is given as “difference in binding affinity”. For the compound `CCCCn1c(Cc2cc(OC)c(OC)c(OC)c2)nc2c(N)ncnc21` [PU3], the “times weaker Hsp90 inhibitor than 17AAG” value in experiment [4] turned out to be 30.
